Test results from ChEMBL document CHEMBL5252612, “A novel selective estrogen receptor degrader induces cell cycle arrest in breast cancer via ERα degradation and the autophagy-lysosome pathway” (Bioorg Med Chem, 2023).
Active and inactive are the calls of the source. The calls are words filed in the database; no cut-off is given here.

Columns and labels:
[1] = tested on: T47D; assay: Induction of apoptosis and necrosis in human T47D cells incubated for 48 hrs by AnnexinV-FITC/PI staining based flow cytometry (reference value: 3.73%); assay type: functional
[2] = tested on: T47D; assay: Induction of cell cycle arrest in human T47D cells transfected with empty vector assessed as proportion of cells at G2 phase at 10 uM incubated for 24 hrs by flow cytometry (reference value: 53%); assay type: functional
[3] = tested on: T47D; assay: Induction of autophagy in human T47D cells assessed as increase in number of lysosomes at 1 to 10 uM by LysoTracker dye based confocal microscopy; assay type: functional, cell-based; details: dose 1-10 µM
[4] = tested on: T47D; assay: Induction of cell cycle arrest in human T47D cells assessed as proportion of cells at S phase at 10 uM incubated for 24 hrs in presence of autophagy inhibitor, 3-MA by flow cytometry (reference value: 21.4%); assay type: functional
[5] = tested on: T47D; assay: Induction of cell cycle arrest in human T47D cells assessed as proportion of cells at G1 phase at 10 uM incubated for 24 hrs in presence of autophagy inhibitor, 3-MA by flow cytometry (reference value: 58.3%); assay type: functional
[6] = Induction of cell cycle arrest in tamoxifen-resistant human LCC2 cells assessed as proportion of cells at G1 phase at 5 uM by flow cytometry (reference value: 47.4%); assay type: functional
[7] = tested on: T47D; assay: Induction of autophagy in human T47D cells overexpressing ESR1 assessed as increase in LC3 protein expression by western blot analysis; assay type: functional, cell-based
[8] = tested on: MCF7; assay: Antitumor activity against human MCF7 cells xenografted in BALB/c nude mouse assessed as reduction in tumor weight at 2 to 4 mg/kg, ip administered every other day; assay type: functional, organism-based; details: dose 2-4 mg/kg
[9] = tested on: T47D; assay: Induction of cell cycle arrest in human T47D cells transfected with empty vector assessed as proportion of cells at S phase at 10 uM incubated for 24 hrs by flow cytometry (reference value: 25.9%); assay type: functional
[10] = tested on: MCF7; assay: Induction of apoptosis and necrosis in human MCF7 cells incubated for 48 hrs by AnnexinV-FITC/PI staining based flow cytometry (reference value: 7.03%); assay type: functional
[11] = molecular target: T1, Estrogen receptor (Homo sapiens) (UniProt P03372); assay: Induction of ER-alpha degradation in human T47D cells assessed as reduction in ER-alpha stability at 10 uM incubated for 3 to 9 hrs in presence of protein synthesis inhibitor, CHX by CHX chase assay based western blot analysis; assay type: cell-based; details: time 3-9 hrs
T1 sequence (whole entry): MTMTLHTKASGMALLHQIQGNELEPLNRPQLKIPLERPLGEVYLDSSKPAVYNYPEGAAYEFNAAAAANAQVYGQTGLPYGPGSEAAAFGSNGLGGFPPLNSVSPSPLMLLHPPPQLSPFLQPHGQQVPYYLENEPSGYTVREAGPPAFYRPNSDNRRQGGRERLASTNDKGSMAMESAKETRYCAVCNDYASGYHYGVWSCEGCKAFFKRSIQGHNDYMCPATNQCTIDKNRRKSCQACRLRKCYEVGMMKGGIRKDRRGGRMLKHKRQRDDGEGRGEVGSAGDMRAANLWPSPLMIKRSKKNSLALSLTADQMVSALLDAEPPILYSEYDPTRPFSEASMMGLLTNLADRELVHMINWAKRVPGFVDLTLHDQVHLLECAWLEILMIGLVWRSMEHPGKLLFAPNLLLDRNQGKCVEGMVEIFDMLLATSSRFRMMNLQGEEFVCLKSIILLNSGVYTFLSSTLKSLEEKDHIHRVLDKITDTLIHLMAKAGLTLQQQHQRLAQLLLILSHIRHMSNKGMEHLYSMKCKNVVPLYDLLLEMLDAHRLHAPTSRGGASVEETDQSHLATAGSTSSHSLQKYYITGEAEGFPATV

[12] = tested on: T47D; assay: Induction of cell cycle arrest in human T47D cells assessed as proportion of cells at G2 phase at 10 uM incubated for 24 hrs by flow cytometry (reference value: 17%); assay type: functional
[13] = Downregulation of MYC expression in human T47D cells at 10 uM incubated for 12 hrs by RNA-seq analysis; assay type: functional
[14] = tested on: T47D; assay: Induction of cell cycle arrest in human T47D cells assessed as proportion of cells at G2 phase at 5 uM incubated for 24 hrs by flow cytometry (reference value: 24.4%); assay type: functional
[15] = tested on: T47D; assay: Anticancer activity against ER-alpha positive human T47D cells assessed as reduction in cell viability at 10 uM measured after 48 hrs in presence of autophagy inhibitor, 3-MA by CCK8 assay; assay type: functional, cell-based
[16] = Induction of cell cycle arrest in tamoxifen-resistant human LCC2 cells assessed as proportion of cells at G1 phase at 10 uM by flow cytometry (reference value: 47.4%); assay type: functional
[17] = Induction of cell cycle arrest in tamoxifen-resistant human LCC2 cells assessed as proportion of cells at G2 phase at 5 uM by flow cytometry (reference value: 23.7%); assay type: functional
[18] = tested on: T47D; assay: Induction of cell cycle arrest in human T47D cells assessed as proportion of cells at G1 phase at 1 uM incubated for 24 hrs by flow cytometry (reference value: 66.6%); assay type: functional
[19] = tested on: T47D; assay: Induction of autophagy in human T47D cells assessed as increase in LC3 puncta formation at 1 to 10 uM incubated for 24 hrs by immunofluorescence assay; assay type: functional, cell-based; details: dose 1-10 µM
[20] = tested on: T47D; assay: Induction of cell cycle arrest in human T47D cells assessed as proportion of cells at S phase at 5 uM incubated for 24 hrs by flow cytometry (reference value: 15.3%); assay type: functional
[21] = Induction of cell cycle arrest in tamoxifen-resistant human LCC2 cells assessed as proportion of cells at S phase at 5 uM by flow cytometry (reference value: 28.4%); assay type: functional
[22] = tested on: LCC2; assay: Anticancer activity against ER-alpha positive human LCC2 cells assessed as reduction in cell viability at 20 uM measured after 48 hrs by CCK8 assay; assay type: functional, cell-based
[23] = tested on: T47D; assay: Induction of autophagy in human T47D cells assessed as increase in LC3 puncta formation at 1 to 10 uM incubated for 24 hrs in presence of chloroquine by immunofluorescence assay; assay type: functional, cell-based; details: dose 1-10 µM
[24] = tested on: MCF7; assay: Induction of apoptosis in human MCF7 cells at 10 uM incubated for 48 hrs by TUNEL assay; assay type: functional, cell-based
[25] = tested on: T47D; assay: Induction of cell cycle arrest in human T47D cells assessed as proportion of cells at S phase at 1 uM incubated for 24 hrs by flow cytometry (reference value: 15.3%); assay type: functional
[26] = Toxicity in BALB/c nude mouse xenografted with human MCF7 cells assessed as kidney cell morphological changes at 2 to 4 mg/kg, ip administered every other day by Hematoxylin and eosin staining based analysis; assay type: organism-based; details: in vivo, dose 2-4 mg/kg
[27] = Induction of cell cycle arrest in tamoxifen-resistant human LCC2 cells assessed as proportion of cells at S phase at 1 uM by flow cytometry (reference value: 28.4%); assay type: functional
[28] = tested on: MCF7; assay: Induction of cell cycle arrest in human MCF7 cells assessed as proportion of cells at G1 phase at 5 uM incubated for 24 hrs by flow cytometry (reference value: 46.3%); assay type: functional
[29] = tested on: T47D; assay: Induction of autophagy in human T47D cells assessed as decrease in p62 protein expression at 5 to 10 uM incubated for 24 hrs by western blot analysis; assay type: functional, cell-based; details: dose 5-10 µM

In the case of `COc1ccc(N(CC(F)(F)F)S(=O)(=O)C2CC3OC2C(c2ccc(OCCN4CCCC4)cc2)=C3c2ccc(O)cc2)cc1` (centres undefined), the Activity [1] is reported as 21.43%, the Activity [2] is reported as 33.7% and the Activity [3] is reported as “Active”. It also gave an Activity [4] of 14.5%, an Activity [5] of 63.3% and an Activity [6] of 71.9%. The Activity [7] was “Active”, the Activity [8] was “Active” and the Activity [9] was 22.8%. For the same compound, the Activity [10] was 46.45%, the Activity [11] was “Active” and the Activity [12] was 16.9%. For the same compound, the “fold change (FC)” value [13] was -1.037, the Activity [14] was 16.2% and the Activity [15] was “inactive”. For the same compound, the Activity [16] was 71.6%, the Activity [17] was 14.5% and the Activity [18] was 71.1%. For the same compound, the Activity [19] was “Active”, the Activity [20] was 9.6% and the Activity [21] was 13%. For the same compound, the Activity [22] was “Active”, the Activity [23] was “Active” and the Activity [24] was “Active”. For the same compound, the Activity [25] was 9.47%, the Activity [26] was “Non-Toxic” and the Activity [27] was 19.6%. The Activity [28] was 65.1% and the Activity [29] was “Active”.
